# From ChEMBL document CHEMBL1128242, “Polyiodinated triglyceride analogs as potential computed tomography imaging agents for the liver” (J Med Chem, 1995)
# Columns and labels:
# [1] = test system: Rattus norvegicus; assay: Distribution of radioactivity was determined in plasma at 3h after intravenous administration of [125I]-labeled 2-oleoglycerol 1,3-Bis-[omega-(3-amino-2,4,6-triiodophenyl)alkanoates] in rats; type: ADME, organism-based; settings: in vivo
# [2] = test system: Rattus norvegicus; assay: Distribution of radioactivity was determined in thyroid at 24 hr after intravenous administration of [125I]-labeled 2-oleoglycerol 1,3-Bis-[omega-(3-amino-2,4,6-triiodophenyl)alkanoates] in rats; type: ADME, organism-based, Thyroid gland; settings: in vivo
# [3] = test system: Rattus norvegicus; assay: Polyacrylamide Gel Electrophoresis (PAGE) to determined the concentration of high density lipoprotein (HDL) in rats after iv administration of [125I]-labeled 2-Oleolyl 1,3-disubstituted triglycerols was reported; type: ADME, organism-based; settings: in vivo
# [4] = test system: Rattus norvegicus; assay: Analysis of lipid-soluble radioactivity in liver 24 hour after iv administration of [125I]-labeled 2-Oleoyl 1,3-disubstituted Triacylglycerols expressed as %parent compound (by TLC with authentic [125I]-labeled standard) from rat; type: ADME, organism-based; settings: in vivo
# [5] = test system: Rattus norvegicus; assay: Distribution of radioactivity was determined in liver at 30 min after intravenous administration of [125I]-labeled 2-oleoglycerol 1,3-Bis-[omega-(3-amino-2,4,6-triiodophenyl)alkanoates] in rats; type: ADME, organism-based; settings: in vivo, 0.5 h
# [6] = test system: Rattus norvegicus; assay: Distribution of radioactivity was determined in kidney at 30 min after intravenous administration of [125I]-labeled 2-oleoglycerol 1,3-Bis-[omega-(3-amino-2,4,6-triiodophenyl)alkanoates] in rats; type: ADME, organism-based; settings: in vivo, 0.5 h
# [7] = test system: Rattus norvegicus; assay: Polyacrylamide Gel Electrophoresis (PAGE) to determined the concentration of low density lipoprotein (LDL) in rats after iv administration of [125I]-labeled 2-Oleolyl 1,3-disubstituted triglycerols was reported; type: ADME, organism-based; settings: in vivo
# [8] = test system: Rattus norvegicus; assay: Distribution of radioactivity was determined in spleen at 30 min after intravenous administration of 1,3-Disubstituted Triacylglycerols in rats; type: ADME, organism-based; settings: in vivo, 0.5 h
# [9] = test system: Rattus norvegicus; assay: Distribution of radioactivity was determined in thyroid at 3h after intravenous administration of [125I]-labeled 2-oleoglycerol 1,3-Bis-[omega-(3-amino-2,4,6-triiodophenyl)alkanoates] in rats; type: ADME, organism-based, Thyroid gland; settings: in vivo
# [10] = test system: Rattus norvegicus; assay: Distribution of radioactivity was determined in kidney at 3h after intravenous administration of [125I]-labeled 2-oleoglycerol 1,3-Bis-[omega-(3-amino-2,4,6-triiodophenyl)alkanoates] in rats; type: ADME, organism-based; settings: in vivo
# [11] = test system: Rattus norvegicus; assay: Distribution of radioactivity was determined in spleen at 48 hr after intravenous administration of 1,3-Disubstituted Triacylglycerols in rats; type: ADME, organism-based; settings: in vivo
# [12] = test system: Rattus norvegicus; assay: Polyacrylamide Gel Electrophoresis (PAGE) to determined the concentration of below albumin(BA) in rats after iv administration of [125I]-labeled 2-Oleolyl 1,3-disubstituted triglycerols was reported; type: ADME, organism-based; settings: in vivo
# [13] = test system: Rattus norvegicus; assay: Distribution of radioactivity was determined in heart at 3h after intravenous administration of [125I]-labeled 2-oleoglycerol 1,3-Bis-[omega-(3-amino-2,4,6-triiodophenyl)alkanoates] in rats; type: ADME, organism-based; settings: in vivo
# [14] = test system: Rattus norvegicus; assay: Distribution of radioactivity was determined in liver at 48 hr after intravenous administration of 1,3-Disubstituted Triacylglycerols in rats; type: ADME, organism-based; settings: in vivo
# [15] = test system: Rattus norvegicus; assay: Polyacrylamide Gel Electrophoresis (PAGE) to determined the concentration of albumin(ALB) in rats after iv administration of [125I]-labeled 2-Oleolyl 1,3-disubstituted triglycerols was reported; type: ADME, organism-based; settings: in vivo
# [16] = test system: Rattus norvegicus; assay: Analysis of lipid-soluble radioactivity in liver 0.5 hour after iv administration of [125I]-labeled 2-Oleoyl 1,3-disubstituted Triacylglycerols expressed as %parent compound (by TLC with authentic [125I]-labeled standard) from rat; type: ADME, organism-based; settings: in vivo
# [17] = test system: Rattus norvegicus; assay: Distribution of radioactivity was determined in liver at 3h after intravenous administration of 1,3-Disubstituted Triacylglycerols in rats; type: ADME, organism-based; settings: in vivo
# [18] = test system: Rattus norvegicus; assay: Distribution of radioactivity was determined in spleen at 24 hr after intravenous administration of [125I]-labeled 2-oleoglycerol 1,3-Bis-[omega-(3-amino-2,4,6-triiodophenyl)alkanoates] in rats; type: ADME, organism-based; settings: in vivo
# [19] = test system: Rattus norvegicus; assay: Distribution of radioactivity was determined in blood at 3h after intravenous administration of 1,3-Disubstituted Triacylglycerols in rats; type: ADME, organism-based; settings: in vivo
# [20] = test system: Rattus norvegicus; assay: Analysis of lipid-soluble radioactivity in liver 0.5 hour after iv administration of [125I]-labeled 2-Oleoyl 1,3-disubstituted Triacylglycerols and represented as % CHCl3/CH3OH from rat; type: ADME, organism-based; settings: in vivo
# [21] = test system: Rattus norvegicus; assay: Distribution of radioactivity was determined in plasma at 30 min after intravenous administration of [125I]-labeled 2-oleoglycerol 1,3-Bis-[omega-(3-amino-2,4,6-triiodophenyl)alkanoates] in rats; type: ADME, organism-based; settings: in vivo, 0.5 h
# [22] = test system: Rattus norvegicus; assay: Analysis of lipid-soluble radioactivity in plasma 24 hour after iv administration of [125I]-labeled 2-Oleoyl 1,3-disubstituted Triacylglycerols and represented as % CHCl3/CH3OH from rat; type: ADME, organism-based; settings: in vivo
# [23] = test system: Rattus norvegicus; assay: Analysis of lipid-soluble radioactivity in plasma 0.5 hour after iv administration of [125I]-labeled 2-Oleoyl 1,3-disubstituted Triacylglycerols and represented as % CHCl3/CH3OH from rat; type: ADME, organism-based; settings: in vivo
# [24] = test system: Rattus norvegicus; assay: Distribution of radioactivity was determined in plasma at 24 hr after intravenous administration of [125I]-labeled 2-oleoglycerol 1,3-Bis-[omega-(3-amino-2,4,6-triiodophenyl)alkanoates] in rats; type: ADME, organism-based; set-up: unit not given here; settings: in vivo
# [25] = test system: Rattus norvegicus; assay: Distribution of radioactivity was determined in heart at 24 after intravenous administration of [125I]-labeled 2-oleoglycerol 1,3-Bis-[omega-(3-amino-2,4,6-triiodophenyl)alkanoates] in rats; type: ADME, organism-based; settings: in vivo
# [26] = test system: Rattus norvegicus; assay: Distribution of radioactivity was determined in blood at 48 hr after intravenous administration of 1,3-Disubstituted Triacylglycerols in rats; type: ADME, organism-based; settings: in vivo
# [27] = test system: Rattus norvegicus; assay: Distribution of radioactivity was determined in liver at 24 hr after intravenous administration of [125I]-labeled 2-oleoglycerol 1,3-Bis-[omega-(3-amino-2,4,6-triiodophenyl)alkanoates] in rats; type: ADME, organism-based; settings: in vivo
# [28] = test system: Rattus norvegicus; assay: Distribution of radioactivity was determined in blood at 30 min after intravenous administration of 1,3-Disubstituted Triacylglycerols in rats; type: ADME, organism-based; settings: in vivo, 0.5 h
# [29] = test system: Rattus norvegicus; assay: Distribution of radioactivity was determined in heart at 30 min after intravenous administration of [125I]-labeled 2-oleoglycerol 1,3-Bis-[omega-(3-amino-2,4,6-triiodophenyl)alkanoates] in rats; type: ADME, organism-based; settings: in vivo, 0.5 h
# [30] = test system: Rattus norvegicus; assay: Distribution of radioactivity was determined in blood at 3h after intravenous administration of [125I]-labeled 2-oleoglycerol 1,3-Bis-[omega-(3-amino-2,4,6-triiodophenyl)alkanoates] in rats; type: ADME, organism-based; settings: in vivo
# [31] = test system: Rattus norvegicus; assay: Distribution of radioactivity was determined in spleen at 24 hr after intravenous administration of 1,3-Disubstituted Triacylglycerols in rats; type: ADME, organism-based; settings: in vivo
# [32] = test system: Rattus norvegicus; assay: Distribution of radioactivity was determined in liver at 24 hr after intravenous administration of 1,3-Disubstituted Triacylglycerols in rats; type: ADME, organism-based; settings: in vivo
# [33] = test system: Rattus norvegicus; assay: Distribution of radioactivity was determined in thyroid at 30 min after intravenous administration of [125I]-labeled 2-oleoglycerol 1,3-Bis-[omega-(3-amino-2,4,6-triiodophenyl)alkanoates] in rats; type: ADME, organism-based, Thyroid gland; settings: in vivo, 0.5 h
# [34] = test system: Rattus norvegicus; assay: Distribution of radioactivity was determined in spleen at 3h after intravenous administration of [125I]-labeled 2-oleoglycerol 1,3-Bis-[omega-(3-amino-2,4,6-triiodophenyl)alkanoates] in rats; type: ADME, organism-based; settings: in vivo
# [35] = test system: Rattus norvegicus; assay: Distribution of radioactivity was determined in liver at 3h after intravenous administration of [125I]-labeled 2-oleoglycerol 1,3-Bis-[omega-(3-amino-2,4,6-triiodophenyl)alkanoates] in rats; type: ADME, organism-based; settings: in vivo
Structure (SMILES),Distribution of radioactivity [1] [% dose/g],Distribution of radioactivity [2] [% dose/g],Radioactivity [3] [%],Lipid-soluble radioactivity [4],Distribution of radioactivity [5] [% dose/g],Distribution of radioactivity [6] [% dose/g],Radioactivity [7] [%],Distribution of radioactivity [8] [% dose/organ],Distribution of radioactivity [9] [% dose/g],Distribution of radioactivity [10] [% dose/g],Distribution of radioactivity [11] [% dose per organ],Radioactivity [12] [%],Distribution of radioactivity [13] [% dose/g],Distribution of radioactivity [14] [% dose/organ],Radioactivity [15] [%],Lipid-soluble radioactivity [16],Distribution of radioactivity [17] [% dose/organ],Distribution of radioactivity [18] [% dose/g],Distribution of radioactivity [19] [% dose/organ],Lipid-soluble radioactivity [20],other results
CCCCCCCC/C=C/CCCCCCCC(=O)OC(COC(=O)C(CC)Cc1c(I)cc(I)c(N)c1I)COC(=O)C(CC)Cc1c(I)cc(I)c(N)c1I (stereo not given),0.03,17.3,2.5,64.7,9.67,0.07,7.4,14.4,5.08,0.03,9.8,1.5,0.25,71.6,4.9,78.6,80,21.7,0.3,97.5,Distribution of radioactivity [21]: 0.42 % dose/g; Lipid-soluble radioactivity [22]: 83; Lipid-soluble radioactivity [23]: 88.2; Distribution of radioactivity [24]: 0.01; Distribution of radioactivity [25]: 0.06 % dose/g; Distribution of radioactivity [26]: 0.1 % dose per organ; Distribution of radioactivity [27]: 10.2 % dose/g; Distribution of radioactivity [28]: 2.6 % dose/organ; Distribution of radioactivity [29]: 0.84 % dose/g; Distribution of radioactivity [30]: 0.02 % dose/g; Distribution of radioactivity [31]: 12.5 % dose/organ; Distribution of radioactivity [32]: 77 % dose/organ; Distribution of radioactivity [33]: 2.88 % dose/g; Distribution of radioactivity [34]: 17.7 % dose/g; Distribution of radioactivity [35]: 9 % dose/g
CCCCCCCC/C=C/CCCCCCCC(=O)OC(COC(=O)CCCCc1c(I)cc(I)c(N)c1I)COC(=O)CCCCc1c(I)cc(I)c(N)c1I,0.09,6.74,5.5,86.5,7.37,0.05,8.1,9.5,1.16,0.09,3.7,0.1,0.09,26.8,20.7,98.9,60.7,13.7,0.9,91.1,Distribution of radioactivity [21]: 0.1 % dose/g; Lipid-soluble radioactivity [22]: 54.5; Lipid-soluble radioactivity [23]: 77.4; Distribution of radioactivity [24]: 0.14; Distribution of radioactivity [25]: 0.07 % dose/g; Distribution of radioactivity [26]: 0.7 % dose per organ; Distribution of radioactivity [27]: 4.53 % dose/g; Distribution of radioactivity [28]: 0.9 % dose/organ; Distribution of radioactivity [29]: 0.59 % dose/g; Distribution of radioactivity [30]: 0.08 % dose/g; Distribution of radioactivity [31]: 6.4 % dose/organ; Distribution of radioactivity [32]: 36.1 % dose/organ; Distribution of radioactivity [33]: 0.54 % dose/g; Distribution of radioactivity [34]: 14.5 % dose/g; Distribution of radioactivity [35]: 6.94 % dose/g
CCCCCCCC/C=C/CCCCCCCC(=O)OC(COC(=O)CCCCCCc1c(I)cc(I)c(N)c1I)COC(=O)CCCCCCc1c(I)cc(I)c(N)c1I,0.29,6.53,0.3,0,7.23,0.2,0.2,10.5,1.69,0.18,0.3,5.1,0.22,4.4,66.3,91.9,45.8,1.43,2.7,56,Distribution of radioactivity [21]: 0.83 % dose/g; Lipid-soluble radioactivity [22]: 15.3; Lipid-soluble radioactivity [23]: 36.1; Distribution of radioactivity [24]: 0.21; Distribution of radioactivity [25]: 0.1 % dose/g; Distribution of radioactivity [26]: 0.4 % dose per organ; Distribution of radioactivity [27]: 1.1 % dose/g; Distribution of radioactivity [28]: 6.6 % dose/organ; Distribution of radioactivity [29]: 0.55 % dose/g; Distribution of radioactivity [30]: 0.28 % dose/g; Distribution of radioactivity [31]: 0.8 % dose/organ; Distribution of radioactivity [32]: 9.6 % dose/organ; Distribution of radioactivity [33]: 0.31 % dose/g; Distribution of radioactivity [34]: 15.3 % dose/g; Distribution of radioactivity [35]: 5.84 % dose/g
